Columns and labels:
[1] = system: 50B11 cells (immortalized rat DRG neuronal cells); assay: MGO-mediated neurotoxicity in differentiated 50B11 cells (DIC imaging, neurite length, soma size); type: cell-based; conditions: 20-24 h
Description: 50B11 cells (immortalized rat DRG neuronal cells) maintain self-replication capability over many cell divisions (>300). The results described in this article were obtained with cells between 100 and 400 passages. Cells were grown in antibiotic treated complete Neurobasal media containing glucose, L-glutamine, Fetal Bovine Serum (FBS), B-27 supplement, and nerve growth factor (NGF) (100 ng/ml). Differentiation and axonal elongation was induced by addition of forskolin (75 pM) into the culture medium. […] Methylglyoxal was administered at a final concentration of 250 pM for 20-24 h post-differentiation of the cells. Podocarpic acid was added at a final concentration of 250 pM and incubated for the same period with or without methylglyoxal. Ethanol was used as a vehicle control. […] Neurite outgrowth was quantified by manually measuring the length of a projection from the edge of the cell body; a neurite was defined as a thin projection longer than the diameter of the associated cell body. Area of soma or cell body was measured excluding the neurite projections. Images were processed using Image Analyst MKII software (www.imageanalyst.net/) and quantification was done using Image J software (//imagei.nih.gov/ij/). 75-100 cells selected randomly were considered for quantification under each experimental condition.

[2] = mice and humans; Gomes and Negrato (2014); cited from earlier work
TRPA1 (worm) = biological target: T1, TRPA1 (worm) (Caenorhabditis elegans, UniProt Q18297); assay: Calcium imaging of HEK293T cells (Rhod-3 AM), worm TRPA1; type: cell-based, C. elegans; conditions: HEK293T transfected with worm TRPA1 and GFP; 100 pM or 1 mM MGO
T1 construct: expressed in transfected cells; host or cells: HEK293T
T1 sequence (Q18297 1-1211): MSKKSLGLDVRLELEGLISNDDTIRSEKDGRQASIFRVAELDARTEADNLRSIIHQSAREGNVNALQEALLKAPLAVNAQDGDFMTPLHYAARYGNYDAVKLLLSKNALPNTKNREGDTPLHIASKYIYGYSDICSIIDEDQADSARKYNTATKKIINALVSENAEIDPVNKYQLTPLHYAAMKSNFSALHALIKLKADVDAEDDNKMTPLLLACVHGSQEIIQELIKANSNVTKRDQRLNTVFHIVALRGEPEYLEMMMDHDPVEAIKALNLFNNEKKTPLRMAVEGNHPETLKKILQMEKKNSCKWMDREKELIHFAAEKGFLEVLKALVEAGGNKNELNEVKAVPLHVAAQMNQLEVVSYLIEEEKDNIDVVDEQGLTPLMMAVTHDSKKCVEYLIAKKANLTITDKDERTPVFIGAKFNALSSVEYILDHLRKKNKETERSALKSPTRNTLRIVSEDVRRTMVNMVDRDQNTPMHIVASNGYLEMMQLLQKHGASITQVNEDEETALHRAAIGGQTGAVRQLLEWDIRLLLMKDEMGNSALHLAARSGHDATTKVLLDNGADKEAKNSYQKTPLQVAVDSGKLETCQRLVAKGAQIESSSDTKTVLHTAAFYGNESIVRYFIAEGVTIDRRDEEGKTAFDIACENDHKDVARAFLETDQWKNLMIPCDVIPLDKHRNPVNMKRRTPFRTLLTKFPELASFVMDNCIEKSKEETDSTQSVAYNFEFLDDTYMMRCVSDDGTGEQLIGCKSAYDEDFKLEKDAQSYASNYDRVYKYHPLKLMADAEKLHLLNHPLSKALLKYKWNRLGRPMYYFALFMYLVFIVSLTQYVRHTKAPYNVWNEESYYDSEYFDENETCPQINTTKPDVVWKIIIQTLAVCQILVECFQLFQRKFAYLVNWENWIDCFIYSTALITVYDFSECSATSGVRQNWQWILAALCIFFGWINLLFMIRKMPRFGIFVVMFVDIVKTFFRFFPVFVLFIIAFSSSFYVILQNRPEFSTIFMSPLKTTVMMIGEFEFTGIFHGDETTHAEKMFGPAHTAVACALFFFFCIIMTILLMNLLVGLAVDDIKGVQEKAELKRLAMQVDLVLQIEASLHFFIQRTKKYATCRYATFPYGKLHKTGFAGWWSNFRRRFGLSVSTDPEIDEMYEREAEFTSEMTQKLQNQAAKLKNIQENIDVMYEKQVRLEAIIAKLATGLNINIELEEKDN
Description: Appropriate HEK293T-derived cells were seeded on collagen-coated glass bottom culture dishes (MatTek Corporation). Cells were loaded with 10 pM of Rhod-3 AM (Life Technology) for 30 min at 37° C. After 30 min they were washed twice with standard Tyrode's solution (135 mM NaCl, 4 mM KCl, 10 mM glucose, 10 mM HEPES, 2 mM CaCl2, and 1 mM MgCl2 at pH=7.4) at room temperature. Calcium imaging was performed on an Olympus BX51WI Axiovert microscope under a 60× objective. Fluorescent images were documented upon sequential excitation with 555 nm followed by 484 nm with a Roper CoolSnap CCD camera. After establishing a baseline 555/484 ratio, methylglyoxal or other agonists were diluted with Tyrode's solution (100 pM or 1 mM final concentration) and were perfused into cells. Images were processed with the MetaFlour (Olympus) software.

GLOD-4/GLO1 = assay: Glod-4p::gfp expression assay; type: in vivo, Caenorhabditis elegans; conditions: EV, skn-1, or trpa-1 RNAi; MGO (7 mM) vs water
Description: Transgenic adult animals carrying glod-4p::gfp were assayed. Fluorescent intensity was calculated by background subtraction and quantified for the same region of interest across individual animals. All quantification was done using Image J™ software (//imagei.nih.gov/ii/).

C. elegans = assay: Swim-bend assay (body bends in liquid media); type: in vivo, Caenorhabditis elegans; conditions: N2 animals; 7 mM MGO vs water

Question: For C[C@]1(C(=O)O)CCC[C@]2(C)c3cc(O)ccc3CC[C@@H]12 [PA, podocarpic acid], which “MGO-induced neurotoxic phenotypes (cell body size, neurite outgrowth)” value ([1]; PA and MGO each at 250 pM) is on record?
Answer: Its value is “ameliorate these MGO-induced neurotoxic phenotypes”.

Question: For O=C(O)CCCCC1CCSS1 (stereo not shown) [LA, a-lipoic acid], which “Effect on diabetic complications” value [2] is on record?
Answer: The value was “documented to ameliorate diabetic complications”.

Question: For CC(=O)C=O [MGO, methylglyoxal], which “Neurite length (neurite outgrowth)” value ([1]; MGO 250 pM) is on record?
Answer: The value was “significant retraction of neurite outgrowths”.

Question: And the “Soma size (cell bodies)” value ([1]; MGO 250 pM)?
Answer: Its value is “shrinkage in cell bodies”.

Question: And the “Ca2+ flux (Rhod-3 AM fluorescence ratio 555/484 nm)” value (TRPA1 (worm))?
Answer: The value was “induce a similar Ca^2+ flux”.

Question: And the “glod-4p::gfp reporter expression (GFP intensity)” value (GLOD-4/GLO1)?
Answer: The value was “trpa-1- and skn-1 -dependent increase in expression”.

Question: And the “Motility (number of body bends in liquid media)” value (C. elegans)?
Answer: Its value is “lower motility”.

From US20180015051A1, “MODULATORS OF ALPHA-DICARBONYL DETOXIFICATION AND THEIR USE FOR THE TREATMENT OF DIABETIC PATHOLOGIES” (Buck Institute for Research on Aging, priority 2016, published 2018)
